Source: patent publication US11179397B2, “Imidazopyrimidine derivatives” (Gilead Sciences, Inc., priority 2018, dated 2021)
pEC50, pIC50: −log10 of the molar value.

What follows are molecules tested on NCI-H358 cells (assay: NCI-H358 3D tumor spheroid growth inhibition). Settings: Homo sapiens, NCI-H358, 168 h, 3D spheroids, 7 days, 3D CellTiter Glo; cellular IC50 designated EC50; read-out: H358 EC50.
Format: cell-based
From the text: SHP-2 Cell Based Assay: […] Materials NCI-H358 cell line was purchased from [NT] number ATCC CRL-5807) (Manassas, Va.). RPMI-1640 (Catalog number 10-040-CM) was from Corning Cellgro (Manassas, Va.), Fetal Bovine Serum (FBS) (Catalog number SH30071.03) was from HyClone (Logan, Utanh), and 100× Penicillin/Streptomycin/L-Glutamine stock (Catalog no. 30-009-CI) and 384-well ULA plates (Catalog number 3830) were from Corning (Fremont, Calif.). Method […] At the day of assay, the cells were trypsinized and seeded at 1000 cells/70 μl/well in 384-well ULA plates and incubated at 37° C. incubator with 5% CO2 to allow spheroids to form. […] The plates were incubated for additional 7 days. Then 35 μl of medium from each well was removed, and replaced with 35 μl of 3D CellTiter Glo reagent from Promega. The wells were mixed by pipetting up and down with Biomek FX for 15 times to induce cell lysis and the plates were incubated at room temperature for additional 10 min to stabilize luminescent signal. The luminescence was then read by Envision. The inhibitor dose response curves were generated using normalized cellular IC50 (designated as EC50 in all FIGURES to distinguish from biochemical IC50s) by in house dose response analyses tools. The wells with DMSO vehicle were used as negative controls (0% inhibition). The % inhibition of SHP-2 compounds was calculated as: 100-[(Compound well luminescence counts/DMSO luminescence counts)×100%].

pEC50 | Compound
6.74 | Cc1nc(N2CCC3(CCC[C@H]3N)CC2)n2ccnc2c1-c1cnc(N)c(Cl)c1Cl [Example 27]
< 4.90 | CC1(N)CCN(c2ncc(Sc3ccnc(N)c3Cl)c3nccn23)CC1 [Example 36]
6.62 | N[C@@H]1CCCC12CCN(c1ncc(Sc3cccc4ncccc34)c3nccn13)CC2 [Example 84]

Compound | pEC50
C[C@@H]1OCC2(CCN(c3ncc(Sc4cc(N)ncc4C(F)(F)F)c4ncc(Cl)n34)CC2)[C@@H]1N [Example 39] | 6.24

The molecules below were run against SHP-2 full length protein (Homo sapiens (Human), UniProt Q06124) (assay: SHP-2 biochemical DiFMUP pseudosubstrate-fluorogenic assay). Settings: 0.2 nM SHP-2, 1 μM IRS-1 activator peptide, 50 μM DiFMUP; read-out: SHP2 IC50.
Experimental: SHP-2 Biochemical Assay Materials Recombinant SHP-2 full length protein was generated in house. SHP-2 protein tyrosine phosphatase (PTP) domain protein (Catalog number SPR0217-20 ug), NaCl (Catalog number S6546-1L), and KCl (Catalog number 60142-500 mL) were purchased from Sigma-Aldrich (St. Louis, Mo.). IRS-1_[…](dPEG8)[…] peptide […]) was custom made by AnaSpec (Fremont, Calif.). DiFMUP substrate (Catalog number D6567), EDTA (Catalog number E177-500 mL), DTT (Catalog number P2325), and 384-well black polystyrene non-binding surface (Catalog number 3820) were purchased from Fisher Scientific (Hanover Park, Ill.). HEPES (Catalog number 15630-080) was purchased from Life Technologies (Pleasanton, Calif.), and Tween-20 (Catalog number 95059-250) was purchased from VWR (Radnor, Pa.). Method Inhibition of SHP-2 activity by small molecule inhibitors was monitored by a biochemical DiFMUP pseudosubstrate-fluorogenic assay. […] The reaction mix was added to the 384-well non-binding plate which had been pre-spotted with 1:3 serial diluted compounds from 10,000-0.005 nM, and incubated at room temperature for 90 min. DiFMUP substrate at final concentration of 50 μM was then added to the wells and incubated for additional 30 min at room temperature. The final reaction volume was 20 μl/well. […] The inhibitor dose response curves were generated using normalized IC50 regression curve fitting by in house dose response analysis tools. The wells with DMSO vehicle were used as controls (100% signal). The percent (%) control of SHP-2 compound was calculated as: (Compound well fluorescence counts/DMSO fluorescence counts)×100%.

pIC50 | Compound
7.07 | Cc1nc(N2CCC3(CCC[C@H]3N)CC2)n2ccnc2c1-c1cccc2cc[nH]c12 [Example 3]
5.74 | Cc1nc(N2CCC3(CCC[C@H]3N)CC2)n2ccnc2c1-c1ccncc1 [Example 4, (R)-8-(7-methyl-8-(pyridin-4-yl)imidazo[1,2-c]pyrimidin-5-yl)-8-azaspiro[4.5]decan-1-amine]
5.27 | Cc1nc(N2CCC3(CCC[C@H]3N)CC2)n2ccnc2c1-c1ccccn1 [Example 6, (R)-8-(7-methyl-8-(pyridin-2-yl)imidazo[1,2-c]pyrimidin-5-yl)-8-azaspiro[4.5]decan-1-amine]
7.59 | Cc1nc(N2CCC3(CCC[C@H]3N)CC2)n2ccnc2c1-c1ccccc1Cl [Example 8, (R)-8-(8-(2-chlorophenyl)-7-methylimidazo[1,2-c]pyrimidin-5-yl)-8-azaspiro[4.5]decan-1-amine]
< 5.00 | Cc1cnn(C)c1-c1c(C)nc(N2CCC3(CCC[C@H]3N)CC2)n2ccnc12 [Example 14, (R)-8-(8-(1,4-dimethyl-1H-pyrazol-5-yl)-7-methylimidazo[1,2-c]pyrimidin-5-yl)-8-azaspiro[4.5]decan-1-amine]
6.24 | Cc1nc(N2CCC3(CCC[C@H]3N)CC2)n2ccnc2c1-c1cc(N)ncc1Cl [Example 16, (R)-8-(8-(2-amino-5-chloropyridin-4-yl)-7-methylimidazo[1,2-c]pyrimidin-5-yl)-8-azaspiro[4.5]decan-1-amine]
< 5.00 | Cc1nc(N2CCC3(CCC[C@H]3N)CC2)n2ccnc2c1-c1cccnc1C(F)(F)F [Example 19, (R)-8-(7-methyl-8-(2-(trifluoromethyl)pyridin-3-yl)imidazo[1,2-c]pyrimidin-5-yl)-8-azaspiro[4.5]decan-1-amine]
< 5.00 | Cc1noc(C)c1-c1c(C)nc(N2CCC3(CCC[C@H]3N)CC2)n2ccnc12 [Example 20]
< 5.00 | Cc1nc(N2CCC3(CCC[C@H]3N)CC2)n2ccnc2c1-c1ccccc1C(F)(F)F [Example 21, (R)-8-(7-methyl-8-(2-(trifluoromethyl)phenyl)imidazo[1,2-c]pyrimidin-5-yl)-8-azaspiro[4.5]decan-1-amine]
5.77 | Cc1nc(N2CCC3(CCC[C@H]3N)CC2)n2ccnc2c1-c1cccnc1 [Example 22, (R)-8-(7-methyl-8-(pyridin-3-yl)imidazo[1,2-c]pyrimidin-5-yl)-8-azaspiro[4.5]decan-1-amine]
< 5.00 | Cc1nc(N2CCC3(CCC[C@H]3N)CC2)n2ccnc2c1-c1ccnc(C(F)(F)F)c1 [Example 24, (R)-8-(7-methyl-8-(2-(trifluoromethyl)pyridin-4-yl)imidazo[1,2-c]pyrimidin-5-yl)-8-azaspiro[4.5]decan-1-amine]
8.48 | Cc1nc(N2CCC3(CC2)C[C@H](O)C[C@H]3N)n2ccnc2c1-c1cccc(Cl)c1Cl [Example 34, (2S,4R)-4-amino-8-(8-(2,3-dichlorophenyl)-7-methylimidazo[1,2-c]pyrimidin-5-yl)-8-azaspiro[4.5]decan-2-ol]
7.64 | CC1(CN)CCN(c2ncc(Sc3cccc(Cl)c3Cl)c3nccn23)CC1 [Example 43, (1-(8-((2,3-dichlorophenyl)thio)imidazo[1,2-c]pyrimidin-5-yl)-4-methylpiperidin-4-yl)methanamine]
< 5.00 | NC1CCCCN(c2ncc(Sc3cccc(Cl)c3Cl)c3nccn23)C1 (stereo not shown) [Example 59, 1-(8-((2,3-dichlorophenyl)thio)imidazo[1,2-c]pyrimidin-5-yl)azepan-3-amine]
7.01 | Cc1nc(N2CCC3(CCC[C@H]3N)CC2)n2ncnc2c1-c1cccc(Cl)c1Cl [Example 60, (R)-8-(8-(2,3-dichlorophenyl)-7-methyl-[1,2,4]triazolo[1,5-c]pyrimidin-5-yl)-8-azaspiro[4.5]decan-1-amine]
6.10 | Cc1nnc2c(Sc3cccc(Cl)c3Cl)cnc(N3CCC(C)(CN)CC3)n12 [Example 64, (1-(8-((2,3-dichlorophenyl)thio)-3-methyl-[1,2,4]triazolo[4,3-c]pyrimidin-5-yl)-4-methylpiperidin-4-yl)methanamine]
7.70 | Cc1nc(N2CCC3(CCC[C@H]3N)CC2)n2cnnc2c1-c1cccc(Cl)c1Cl [Example 65, (R)-8-(8-(2,3-dichlorophenyl)-7-methyl[1,2,4]triazolo[4,3-c]pyrimidin-5-yl)-8-azaspiro[4.5]decan-1-amine]
6.26 | C[C@@H]1OCC2(CCN(c3ncc(Sc4nccc5ccccc45)c4nccn34)CC2)[C@@H]1N [Example 118, (3S,4S)-8-(8-(isoquinolin-1-ylthio)imidazo[1,2-c]pyrimidin-5-yl)-3-methyl-2-oxa-8-azaspiro[4.5]decan-4-amine]
7.29 | C[C@@H]1OCC2(CCN(c3ncc(Sc4ccnc5cc(C#N)ccc45)c4nccn34)CC2)[C@@H]1N [Example 125, 4-((5-((3S,4S)-4-amino-3-methyl-2-oxa-8-azaspiro[4.5]decan-8-yl)imidazo[1,2-c]pyrimidin-8-yl)thio)quinoline-7-carbonitrile]
8.05 | C[C@@H]1OCC2(CCN(c3ncc(Sc4ccnc5cc(Cl)ccc45)c4nccn34)CC2)[C@@H]1N [Example 134, (3S,4S)-8-(8-((7-chloroquinolin-4-yl)thio)imidazo[1,2-c]pyrimidin-5-yl)-3-methyl-2-oxa-8-azaspiro[4.5]decan-4-amine]

Compound | pIC50
Cc1nc(N2CCC3(CCC[C@H]3N)CC2)n2ccnc2c1Sc1ccc(N)nc1C(F)(F)F [Example 17, (R)-8-(8-((6-amino-2-(trifluoromethyl)pyridin-3-yl)thio)-7-methylimidazo[1,2-c]pyrimidin-5-yl)-8-azaspiro[4.5]decan-1-amine] | 8.00
C[C@@H]1OCC2(CCN(c3ncc(Sc4ccc(N)nc4C(F)(F)F)c4nccn34)CC2)[C@@H]1N [Example 37, (3S,4S)-8-(8-((6-amino-2-(trifluoromethyl)pyridin-3-yl)thio)imidazo[1,2-c]pyrimidin-5-yl)-3-methyl-2-oxa-8-azaspiro[4.5]decan-4-amine] | 7.77
CC1(N)CCN(c2ncc(Sc3ccccc3)c3nccn23)CC1 [Example 49, 4-methyl-1-(8-(phenylthio)imidazo[1,2-c]pyrimidin-5-yl)piperidin-4-amine] | 5.14
Nc1cc(C(F)(F)F)c(Sc2cnc(N3CCC4(CCC[C@H]4N)CC3)n3ccnc23)cn1 [Example 50, (R)-8-(8-((6-amino-4-(trifluoromethyl)pyridin-3-yl)thio)imidazo[1,2-c]pyrimidin-5-yl)-8-azaspiro[4.5]decan-1-amine] | 5.12
Nc1ccc(Sc2cnc(N3CCC4(CCC[C@H]4N)CC3)n3ccnc23)c(C(F)(F)F)n1 [Example 51, (R)-8-(8-((6-amino-2-(trifluoromethyl)pyridin-3-yl)thio)imidazo[1,2-c]pyrimidin-5-yl)-8-azaspiro[4.5]decan-1-amine] | 7.82
Nc1cc(Sc2cnc(N3CCC4(CCC[C@H]4N)CC3)n3ccnc23)c(C(F)(F)F)cn1 [Example 53, (R)-8-(8-((2-amino-5-(trifluoromethyl)pyridin-4-yl)thio)imidazo[1,2-c]pyrimidin-5-yl)-8-azaspiro[4.5]decan-1-amine] | 7.92
N[C@@H]1CCCC12CCN(c1ncc(Sc3cncnc3C(F)(F)F)c3nccn13)CC2 [Example 54, (R)-8-(8-((4-(trifluoromethyl)pyrimidin-5-yl)thio)imidazo[1,2-c]pyrimidin-5-yl)-8-azaspiro[4.5]decan-1-amine] | 5.32
